# Data reported in patent publication US20240247252A1, “NOVEL COMPOUNDS FOR THE DEVELOPMENT OF REVERSIBLE COVALENT DRUGS” (The Trustees of Boston College, priority 2023, published 2024).
# Positions of bridges follow the written chain, without caps; N, C: chain ends. Non-standard residues stand in square brackets, D forms with d. Residues, ends and D or L forms follow the SMILES beside them. *: point of attachment. X1 = O=Cc1ccccc1NCc1cc(C(=O)*)ccc1B(O)O; X2 = CC(=O)c1ccc(OCC(=O)*)cc1B(O)O; Dap = NC[C@H](N)C(=O)O
# How the values were obtained:
# [1] = test system: SrtA on live S. aureus cells; assay: SrtA inhibition on live S. aureus cells, labeling by fluorescent SrtA substrate FAM-GSLPETGGS, flow cytometry; type: cell-based, Staphylococcus aureus; settings: live S. aureus in LB media, read-out: IC50 of SrtA-mediated fluorescence labeling
# Protocol: The peptides for SrtA inhibition on live S. aureus cells was further tested. A fluorescently labeled SrtA substrate (FAM-GSLPETGGS) was mixed with S. aureus in LB media with or without a peptide inhibitor. The SrtA-mediated bacterial labeling was assessed using fluorescence microscopy and flow cytometry.
# [2] = test system: SrtA on live S. aureus cells; assay: Long-lasting SrtA inhibition on S. aureus cells after washing away unbound inhibitor; type: cell-based, Staphylococcus aureus; settings: unbound inhibitor washed away before substrate added, flow cytometry after 6 hours of incubation
# Protocol: To test this hypothesis, the S. aureus cells was treated with P5 and then the unbound inhibitor was washed away before the fluorescent SrtA substrate was added. The S. aureus cells were subjected to flow cytometry analysis after 6 hours of incubation.
# sortase A (SrtA) [3] = target: T1, sortase A (SrtA) (Staphylococcus aureus, UniProt Q2FV99); assay: SrtA binding kinetics, competition assay using W7-F as fluorescence reporter
# T1 sequence (Q2FV99 whole entry): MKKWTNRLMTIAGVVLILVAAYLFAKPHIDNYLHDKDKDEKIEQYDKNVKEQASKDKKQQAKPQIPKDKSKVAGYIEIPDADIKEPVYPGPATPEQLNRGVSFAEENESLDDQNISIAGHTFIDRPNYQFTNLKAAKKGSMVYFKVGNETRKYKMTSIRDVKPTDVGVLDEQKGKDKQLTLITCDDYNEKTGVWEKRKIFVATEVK
# Protocol: FIG. 1 illustrates reversible covalent inhibition of SrtA. […] The peptide's termini and the proximal lysine residues are labeled with the lysine ε-amines colored blue. […] FIG. 1(d) and FIG. 1(e) show SrtA binding kinetics of P3 and P5 recorded via a competition assay using W7-F as a fluorescence reporter.
# Kinetic characterization of the P5-SrtA binding yielded a kon of 6.3 M^−1 s^−1, which is ˜300 times faster than the RMR1-lysine conjugation. The koff was determined to be 8.2×10^−6 s^−1, 4 times slower than the RMR1-lysine conjugation. The faster on-rate and slower off-rate are expected for the cooperative action between the covalent warhead and the W7 peptide that binds SrtA noncovalently.
# sortase A (SrtA) [4] = target: T1, sortase A (SrtA); assay: biochemical; type: binding
# Protocol: For peptide conjugation, a —COOH derivative of RMR1 and 2-APBA was synthesized respectively. […] The resulting peptides were assessed for SrtA binding through a fluorescence polarization-based competition assay, in which a fluorophore labeled W7 (W7-F) was used as a reporter.
compound,measurement,setting,value
CC[C@H](C)[C@@H]1NC(=O)[C@H](CC(C)C)NC(=O)[C@@H](NC(=O)[C@H](C)N)CSSC[C@@H](C(=O)NCC(=O)NCC(=O)NCC(=O)N[C@@H](CNC(=O)COc2ccc(C(C)=O)c(B(O)O)c2)C(N)=O)NC(=O)CNC(=O)CNC(=O)[C@H](Cc2c[nH]c3ccccc23)NC(=O)[C@H]([C@@H](C)O)NC(=O)[C@@H]2CCCN2C1=O [Compound P3] (H-ACLIPTWGGCGGG[Dap](X2)-NH2; disulfide 2-10),IC50,[1],3.7 µM
same,inhibition of SrtA-mediated fluorescence labeling after washing,[2],marginal reduction
same,SrtA binding kinetics in words,sortase A (SrtA) [3],reached equilibrium instantaneously
same,IC50,sortase A (SrtA) [4],4.6 µM
CC[C@H](C)[C@@H]1NC(=O)[C@H](CC(C)C)NC(=O)[C@@H](NC(=O)[C@H](C)NC(C)=O)CSSC[C@@H](C(=O)NCC(=O)NCC(=O)NCC(=O)N[C@@H](CNC(=O)c2ccc(B(O)O)c(CNc3ccccc3C=O)c2)C(N)=O)NC(=O)CNC(=O)CNC(=O)[C@H](Cc2c[nH]c3ccccc23)NC(=O)[C@H]([C@@H](C)O)NC(=O)[C@@H]2CCCN2C1=O [Compound P5] (Ac-ACLIPTWGGCGGG[Dap](X1)-NH2; disulfide 2-10),koff,sortase A (SrtA) [3],8.2e-06 s⁻¹
same,"koff, times slower than the RMR1-lysine conjugation",sortase A (SrtA) [3],4 times
same,kon,sortase A (SrtA) [3],6.3 M⁻¹ s⁻¹
same,"kon, times faster than the RMR1-lysine conjugation",sortase A (SrtA) [3],~300 times
same,IC50,sortase A (SrtA) [4],1.3 µM
CC[C@H](C)[C@@H]1NC(=O)[C@H](CC(C)C)NC(=O)[C@@H](NC(=O)[C@H](C)NC(=O)CNC(=O)CNC(=O)CNC(=O)COc2ccc(C(C)=O)c(B(O)O)c2)CSSC[C@@H](C(N)=O)NC(=O)CNC(=O)CNC(=O)[C@H](Cc2c[nH]c3ccccc23)NC(=O)[C@H]([C@@H](C)O)NC(=O)[C@@H]2CCCN2C1=O [Compound P7] (X2-GGGACLIPTWGGC-NH2; disulfide 5-13),IC50,sortase A (SrtA) [4],4.5 µM
CC[C@H](C)[C@@H]1NC(=O)[C@H](CC(C)C)NC(=O)[C@@H](NC(=O)[C@H](C)NC(=O)CNC(=O)CNC(=O)CNC(=O)c2ccc(B(O)O)c(CNc3ccccc3C=O)c2)CSSC[C@@H](C(N)=O)NC(=O)CNC(=O)CNC(=O)[C@H](Cc2c[nH]c3ccccc23)NC(=O)[C@H]([C@@H](C)O)NC(=O)[C@@H]2CCCN2C1=O [Compound P8] (X1-GGGACLIPTWGGC-NH2; disulfide 5-13),IC50,sortase A (SrtA) [4],3.8 µM
CC[C@H](C)[C@@H]1NC(=O)[C@H](CC(C)C)NC(=O)[C@@H](NC(=O)[C@H](C)N)CSSC[C@@H](C(N)=O)NC(=O)CNC(=O)CNC(=O)[C@H](Cc2c[nH]c3ccccc23)NC(=O)[C@H]([C@@H](C)O)NC(=O)[C@@H]2CCCN2C1=O [Compound W7] (H-ACLIPTWGGC-NH2; disulfide 2-10),IC50,sortase A (SrtA) [4],17 µM
